From patent US8404618B2, “Herbicidal composition” (priority 2004, dated 2013)

How the values were obtained:
Format in all cases: in vivo
[1] = system: maize (Marista 11f); test: Post-emergent test on maize (safener action); conditions: post-emergent (GS 11), evaluated after 28 days
Experimental: The test plants are sown in containers under glasshouse conditions. A standard earth is used as the culture substrate. In a maize growth stage of one leaf (GS 11), the herbicides are applied both by themselves and in a mixture with safeners to the soil and leaf surface. The application is carried out with an aqueous suspension of the test substances, prepared from a 25% wettable powder (Example F3,b) or a suspension concentrate (Example F8), to achieve a field equivalent of 200 l/ha. The tests are evaluated after 28 days (100%=plants completely dead; 0%=no phytotoxic action on the plants).

[2] = system: wheat; test: Pre-emergent test on wheat (safener action); conditions: after 14 days, average value of two repetitions
Experimental: The test plants are sown in 48 well plates in a growth chamber. A sterilized standard earth is used as the culture substrate. In a pre-emergent stage, the herbicides are applied both by themselves and in a mixture with safeners to the soil surface. The application is carried out with an aqueous suspension of the test substances, prepared from a 25% wettable powder (Example F3,b), to achieve a field equivalent of 375 l/ha. The tests are evaluated after 14 days (100%=plants completely dead; 0%=no phytotoxic action on the plants).

[3] = system: maize; test: Pre-emergent test on maize (safener action); conditions: evaluated after 14 days
Experimental: The test plants are sown in seed troughs under greenhouse conditions. A standard earth is used as the culture substrate. In a pre-emergent stage, the herbicides are applied both by themselves and in a mixture with safeners to the soil surface. […] The tests are evaluated after 14 days (100%=plants completely dead; 0%=no phytotoxic action on the plants).

Structure (SMILES)	phytotoxic action on the plants (100%=plants completely dead; 0%=no phytotoxic action) ([1]; herbicide alone 37.5 g/ha) [%]	phytotoxic action on the plants (100%=plants completely dead; 0%=no phytotoxic action) ([1]; herbicide alone 75 g/ha) [%]	phytotoxic action on the plants (100%=plants completely dead; 0%=no phytotoxic action) ([1]; herbicide alone 150 g/ha) [%]	phytotoxic action on the plants (100%=plants completely dead; 0%=no phytotoxic action) ([2]; herbicide alone 100 g/ha) [%]	phytotoxic action on the plants (100%=plants completely dead; 0%=no phytotoxic action) ([2]; herbicide alone 200 g/ha) [%]	phytotoxic action on the plants (100%=plants completely dead; 0%=no phytotoxic action) ([3]; herbicide alone 250 g/ha) [%]	phytotoxic action on the plants (100%=plants completely dead; 0%=no phytotoxic action) ([3]; herbicide alone 500 g/ha) [%]	phytotoxic action on the plants (100%=plants completely dead; 0%=no phytotoxic action) ([3]; herbicide alone 1000 g/ha) [%]
Cn1nc(C(F)(F)F)c(CS(=O)(=O)C2=NOC(C)(C)C2)c1OC(F)F [Comp. 1.27, 3-(5-difluoromethoxy-1-methyl-3-trifluoromethyl-1H-pyrazol-4-ylmethylsulfonyl)-5,5-dimethyl-4,5-dihydroisoxazole]	0	10	40	25	50			
CC1(C)CC(S(=O)(=O)Cc2c(F)cccc2F)=NO1 [Comp. 1.41]						30	70	80
Cn1nc(C(F)(F)F)c(C[S+]([O-])C2=NOC(C)(C)C2)c1OC(F)F (stereo not drawn) [Comp. 1.57]				90				
